In patent publication US7998965B2, “Glutamate aggrecanase inhibitors” (Wyeth LLC, priority 2005, dated 2011) one finds IC50 and Ki data, which are given here for twelve molecules.

In assay [1] the target is T1, purified recombinant human Aggrecanase-2 (Ag2t-Phe628-Strep) (Homo sapiens, UniProt Q9UNA0).
T1 construct: the form used is denoted as Ag2t-Phe628-Strep (MW=41,737)
T1 sequence (Q9UNA0 262-628): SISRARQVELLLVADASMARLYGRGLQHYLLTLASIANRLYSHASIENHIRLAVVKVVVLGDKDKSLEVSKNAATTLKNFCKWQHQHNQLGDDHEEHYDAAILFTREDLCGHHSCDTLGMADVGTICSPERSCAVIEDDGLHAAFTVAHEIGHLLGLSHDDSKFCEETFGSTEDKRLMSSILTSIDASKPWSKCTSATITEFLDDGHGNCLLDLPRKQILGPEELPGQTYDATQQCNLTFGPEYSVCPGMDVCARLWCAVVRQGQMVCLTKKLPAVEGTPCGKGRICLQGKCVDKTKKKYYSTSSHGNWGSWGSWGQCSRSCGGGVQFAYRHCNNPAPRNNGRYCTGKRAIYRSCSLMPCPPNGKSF
The assay is described as follows: In vitro fluorescence screen for Aggrecanase-2 inhibitors. The assay is classed as biochemical. The settings on record: for IC50: read-out: Agg 2 IC50.

Assay [2] deals with T2, purified recombinant human Aggrecanase-1 (rAgg1) (Homo sapiens, UniProt O75173).
T2 sequence (O75173 213-837): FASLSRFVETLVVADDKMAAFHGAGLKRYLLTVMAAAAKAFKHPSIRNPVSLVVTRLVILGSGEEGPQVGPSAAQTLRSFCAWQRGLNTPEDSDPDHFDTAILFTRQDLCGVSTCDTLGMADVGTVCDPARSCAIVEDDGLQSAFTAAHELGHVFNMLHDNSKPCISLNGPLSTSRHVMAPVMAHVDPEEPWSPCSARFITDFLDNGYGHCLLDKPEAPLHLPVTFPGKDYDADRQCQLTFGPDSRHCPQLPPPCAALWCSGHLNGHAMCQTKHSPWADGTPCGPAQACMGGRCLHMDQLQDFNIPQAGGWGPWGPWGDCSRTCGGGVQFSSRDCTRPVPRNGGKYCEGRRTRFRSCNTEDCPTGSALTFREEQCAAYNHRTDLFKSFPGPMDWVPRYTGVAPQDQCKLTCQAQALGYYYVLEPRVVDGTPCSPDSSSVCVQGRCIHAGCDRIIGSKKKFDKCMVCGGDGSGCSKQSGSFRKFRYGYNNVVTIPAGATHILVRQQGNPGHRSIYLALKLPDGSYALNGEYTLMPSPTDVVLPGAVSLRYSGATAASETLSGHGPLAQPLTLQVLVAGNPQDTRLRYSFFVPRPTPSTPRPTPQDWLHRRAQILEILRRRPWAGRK
The assay can be described thus: In vitro fluorescence screen for Aggrecanase-1 inhibitors. The class given is biochemical. The settings on record: for IC50: read-out: Agg1 IC50.

Read-outs that look alike come from different tables or passages of the source.

In the case of `O=C(O)CC[C@H](NC(=O)c1ccc2c(c1)Cc1ccccc1-2)C(=O)NC12CC3CC(CC(C3)C1)C2` [Example 8AAAAA, N^1-1-adamantyl-N^2-(9H-fluoren-2-ylcarbonyl)-L-α-glutamine], the half-maximal inhibitory concentration (IC50) in assay [1] (Table 2) worked out at 0.41 µM; in assay [2] (Table 2), 0.372 µM.

With `O=C(O)CC[C@H](NC(=O)c1ccc(-c2ccccc2)cc1)C(=O)NCC12CC3CC(CC(C3)C1)C2` [Example 8AAAAAA, N-(1-adamantylmethyl)-N^2-(biphenyl-4-ylcarbonyl)-L-α-glutamine], the IC50 in assay [1] (Table 2) was 1.76 µM; in assay [2] (Table 2) it was 0.534 µM.

In the case of `CC(C)(Cc1ccc(Cl)cc1)NC(=O)[C@H](CCC(=O)O)NC(=O)c1ccc(-c2ccc(F)cc2F)cc1` [Example 8AAAAAAA, N-[2-(4-chlorophenyl)-1,1-dimethylethyl]-N^2-[(2′,4′-difluorobiphenyl-4-yl)carbonyl]-L-α-glutamine], the IC50 in assay [1] (Table 3) worked out at 0.55 µM; in assay [2] (Table 3), 0.08 µM.

For `O=C(O)CC[C@H](NC(=O)C1c2ccccc2-c2ccccc21)C(=O)NC12CC3CC(CC(C3)C1)C2` [Example 8BBBBB, N^1-1-adamantyl-N^2-(9H-fluoren-9-ylcarbonyl)-L-α-glutamine], the IC50 was 20.9 µM in assay [1] (Table 2) and over 17 µM in assay [2] (Table 2).

Consider `O=C(O)CC[C@H](NC(=O)c1ccc2c(c1)Cc1ccccc1-2)C(=O)N[C@H](CO)Cc1ccccc1` [Example 8BBBBBB, N-[(1S)-1-benzyl-2-hydroxyethyl]-N^2-(9H-fluoren-2-ylcarbonyl)-L-α-glutamine], for which the IC50 in assay [1] (Table 2) turned out to be 2.67 µM; in assay [2] (Table 2) it was 0.47 µM.

Regarding `CC(C)(Cc1ccc(Cl)cc1)NC(=O)[C@H](CCC(=O)O)NC(=O)c1ccc(-c2cc(F)ccc2F)cc1` [Example 8BBBBBBB, N-[2-(4-chlorophenyl)-1,1-dimethylethyl]-N^2-[(2′,5′-difluorobiphenyl-4-yl)carbonyl]-L-α-glutamine], the IC50 in assay [1] (Table 3) was 1 µM; in assay [2] (Table 3) it was 0.11 µM.

In the case of `CC(C)(Cc1ccc(F)cc1)NC(=O)[C@H](CCC(=O)O)NC(=O)c1ccc(-c2ccc3c(c2)OCC3)cc1` [Example 8BBBBBBBB, N^2-[4-(2,3-dihydro-1-benzofuran-6-yl)benzoyl]-N-[2-(4-fluorophenyl)-1,1-dimethylethyl]-L-α-glutamine], the IC50 in assay [1] (Table 3) was 0.2 to 0.6 µM; in assay [2] (Table 3), 0.3 µM.

Turning to `CC(C)(Cc1ccc(F)cc1)NC(=O)[C@H](CCC(=O)O)NC(=O)c1ccc(-c2cccs2)s1` [Example 8BBBBBBBBB, N^2-(2,2′-bithien-5-ylcarbonyl)-N-[2-(4-fluorophenyl)-1,1-dimethylethyl]-L-α-glutamine], the IC50 is 0.1 to 0.3 µM in assay [1] (Table 3) and under 0.03 µM in assay [2] (Table 3). The Ki in assay [1] (Table 3, read-out: Ki Agg2) came out at 0.681 µM; in assay [2] (Table 3, read-out: Ki Agg1) it was 0.0115 µM.

Regarding `CC(C)(Cc1ccccc1)NC(=O)[C@H](CCC(=O)O)NC(=O)c1sccc1-c1ccccc1` [Example 8BBBBBBBBBB, N-(1,1-dimethyl-2-phenylethyl)-N^2-[(3-phenyl-2-thienyl)carbonyl]-L-α-glutamine], the figures for the IC50 in assay [1] (Table 3) and in assay [2] (Table 3) were over 200 µM and 22 µM, respectively.

With `CN(CCc1ccccc1)C(=O)[C@H](CCC(=O)O)NC(=O)c1ccc(-c2ccccc2)cc1` [Example 8CCCCCC, N^2-(biphenyl-4-ylcarbonyl)-N-methyl-N-(2-phenylethyl)-L-α-glutamine], the IC50 in assay [1] (Table 2) is over 22 µM; in assay [2] (Table 2), 2.4 µM.

`CC(C)(Cc1ccc(Cl)cc1)NC(=O)[C@H](CCC(=O)O)NC(=O)c1ccc(-c2c(F)cccc2F)cc1` [Example 8CCCCCCC, N-[2-(4-chlorophenyl)-1,1-dimethylethyl]-N^2-[(2′,6′-difluorobiphenyl-4-yl)carbonyl]-L-α-glutamine]: the IC50 in assay [1] (Table 3) was determined as 0.68 µM; in assay [2] (Table 3), 0.05 µM.

With `Cc1cccc(CNC(=O)[C@H](CCC(=O)O)NC(=O)c2ccc3c(c2)C(=O)c2ccccc2-3)c1` [Example 8DDDDD, N^1-(3-methylbenzyl)-N^2-[(9-oxo-9H-fluoren-2-yl)carbonyl]-L-α-glutamine], the figures for the IC50 in assay [1] (Table 2) and in assay [2] (Table 2) were 1.1 µM and 0.315 µM, respectively.
